# Measured values as given in patent US20070225242A1, “Method and composition for treating and preventing tumor metastasis in vivo” (The Board of Trustees of the Leland Stanford Junior …, priority 2005, published 2007).
# Experiments:
# [1] = tested on: Caski human cervical cancer cells; assay: Tail vein metastasis and survival assay, Caski cells; format: in vivo, mice
# Procedure: Described briefly below are the results of experiments conducted with several different cell types. • 1. PANCREATIC: Panc-1 human pancreatic cells (see ATCC CRL-1469) expressing LOX shRNA were subjected to a tail vein metastasis assay comparing their metastatic growth to that of control Panc-1 cells. […] CERVICAL: Tail vein metastasis assays were performed using Caski human cervical cancer cells (See CRL-1550). After 4 weeks of growth, half the mice were treated with BAPN. […] COLON: HCT116 human colon cancer cells (see CCL-247) were transfected to express LOX shRNA and grown as subcutaneous tumors in nude mice, while comparing their growth with that of control cells.
# Caski Cervical cancer cells were injected into the tail vein of immune deficient mice and analyzed for survival differences. Metastases were allowed to form for two weeks before animals were treated with 100 mg/kg BAPN daily for up to 40 days. FIG. 14 is a Kaplan-Meyer plot showing survival of the animals. […] Upon discontinuation of BAPN treatment, animals started to die.
# [2] = tested on: MDA231 human breast cancer cells; assay: Pulmonary foci after i.v. MDA231 cells with daily conditioned media injections; format: in vivo, mice; conditions: i.v. tumor cells with daily CM injections
# From the text: To determine if the effect of increased circulating LOX levels on the growth of tumor cell foci at metastatic sites was independent of the initial steps of metastasis from a primary tumor (Steeg (2006) Nat. Med. 12:895-904), we intravenously injected MDA231 human breast cancer cells that expressed either LOX-targeting shRNA or a scrambled control sequence (Wt). We also provided circulating LOX by daily intraperitoneal injections of conditioned media (CM) derived from Wt or LOX shRNA cells exposed to hypoxic (H) or normoxic (N) conditions for 24 hours in vitro. […] CM from aerobic LOX shRNA cells had the lowest LOX activity (FIG. 19B).
# Local secretion of LOX by Wt tumor cells could sustain growth of Wt foci in the absence of exogenous circulating LOX, although larger foci were present when circulating LOX from hypoxic Wt CM was supplied (FIG. 19F-G). Since circulating LOX levels are highest in mice prior to metastasis formation from a primary tumor (FIG. 19A), we injected CM daily for 2 weeks prior to i.v. tumor cell injection (FIG. 19B).
# Conditioned media (CM) consisted of serum-free Modified Eagle's Medium cultured on MDA231 LOX shRNA or control cells incubated in normoxia (N; 21% O2) or hypoxia (H; 2% O2) for 24 h. CM was passed through a 0.22-μm filter and 300-μl were injected intraperitoneally daily into mice (Kaplan (2005), supra). […]
# LOX = LOX fluorescent activity assay, in vivo (plasma of treated tumor-bearing mice); conditions: BAPN-treated and antibody-treated mice, terminal bleeds
# From the text: LOX activity may be measured in a number of ways, using a soluble elastin or soluble collagen with labeled lysine as a substrate. Details of an activity assay are given in Royce et al., “Copper metabolism in mottled mouse mutants. The effect of copper therapy on lysyl oxidase activity in brindled (Mobr) mice,” Biochem J. 1982 Feb. 15; 202(2): 369-371. Especially preferred is a […] assay. One is described in Palamakumbura, et al. “A fluorometric assay for detection of lysyl oxidase enzyme activity in biological samples,” Anal Biochem. 2002 Jan. 15; 300(2):245-51. This method was used in the present work to assess LOX inhibition by BAPN and by anti-LOX antibody in cells in culture (using conditioned media) and in mice (using plasma), in a 96-well format.
# LOX activity assay. The original method is described in Folgelgren, et al. J. Biol. Chem. 280:24690-24697 (2005). For the in vivo data, terminal bleeds were taken at the end of the experiment described above from untreated (control) mice, 2 and 3 wk BAPN mice, and antibody-treated mice. […] For the in vitro data, 50 μl of conditioned phenol-red-free medium was taken from cells incubated for 24 h under conditions of hypoxia. Samples were incubated overnight at 37° C. with different concentrations of BAPN or with purified LOX antibody at a concentration equivalent to 20 mg kg^−1 dose. Again, 0=fluorescent reading for 500 μM BAPN.
structure (smiles),measurement,setting,value
"N#CCCN [BAPN, β-aminoproprionitrile]",animals survived,"[1]; 100 mg/kg BAPN daily for up to 40 days, started two weeks after injection",100%
same,disease course on renewed BAPN treatment,[1]; BAPN administered after 90 days to animals that already harbored metastases,became stabilized
same,lung foci (micro-metastases),[1]; BAPN after 4 weeks of growth,eliminated formation of any lung foci
same,pulmonary foci formation,[2],diminished foci formation
same,LOX activity levels in the blood,LOX,Reduced LOX activity levels
